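Method: 48-hour compound exposure of cells in 96-well plates, five concentrations, linear interpolation of endpoints. TGI is the concentration that stops growth completely.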
How the values were obtained:
Test in all cases: NCI anticancer screen, dose series, 48 h
NCI-H23 lung = system: NCI-H23 lung
A549 NSCLC = system: A549 NSCLC
CAKI-1 renal = system: CAKI-1 renal
A498 renal = system: A498 renal
RPMI-8226 leukemia = system: RPMI-8226 leukemia
OVCAR-4 ovarian = system: OVCAR-4 ovarian
DMS 273 small cell lung = system: DMS 273 small cell lung
IGROV1 ovarian = system: IGROV1 ovarian
SW-620 colon = system: SW-620 colon
DMS 114 small cell lung = system: DMS 114 small cell lung
SNB-19 CNS = system: SNB-19 CNS
UO-31 renal = system: UO-31 renal
SN12C renal = system: SN12C renal
KM20L2 colon = system: KM20L2 colon
CCRF-CEM leukemia = system: CCRF-CEM leukemia
XF 498 CNS = system: XF 498 CNS
COLO 205 colon = system: COLO 205 colon
UACC-257 melanoma = system: UACC-257 melanoma
TK-10 renal = system: TK-10 renal
NCI-H226 lung = system: NCI-H226 lung
SF-295 CNS = system: SF-295 CNS
RXF 393 renal = system: RXF 393 renal
HCT-15 colon = system: HCT-15 colon
ACHN renal = system: ACHN renal
UACC-62 melanoma = system: UACC-62 melanoma
MOLT-4 leukemia = system: MOLT-4 leukemia
M19-MEL melanoma = system: M19-MEL melanoma
NCI-H522 lung = system: NCI-H522 lung
HT29 colon = system: HT29 colon
SF-268 CNS = system: SF-268 CNS
OVCAR-8 ovarian = system: OVCAR-8 ovarian
M14 melanoma = system: M14 melanoma
SF-539 CNS = system: SF-539 CNS
SK-MEL-28 melanoma = system: SK-MEL-28 melanoma
OVCAR-3 ovarian = system: OVCAR-3 ovarian
OVCAR-5 ovarian = system: OVCAR-5 ovarian
SK-MEL-5 melanoma = system: SK-MEL-5 melanoma
SK-MEL-2 melanoma = system: SK-MEL-2 melanoma
LOX IMVI melanoma = system: LOX IMVI melanoma
MALME-3M melanoma = system: MALME-3M melanoma
SNB-78 CNS = system: SNB-78 CNS
HOP-62 NSCLC = system: HOP-62 NSCLC
DLD-1 colon = system: DLD-1 colon
786-0 renal = system: 786-0 renal
EKVX NSCLC = system: EKVX NSCLC
NCI-H460 lung = system: NCI-H460 lung
K-562 leukemia = system: K-562 leukemia
HL-60(TB) leukemia = system: HL-60(TB) leukemia
LXFL 529 NSCLC = system: LXFL 529 NSCLC
SNB-75 CNS = system: SNB-75 CNS
HOP-92 NSCLC = system: HOP-92 NSCLC
KM12 colon = system: KM12 colon
HCC-2998 colon = system: HCC-2998 colon
U251 CNS = system: U251 CNS
HOP-18 NSCLC = system: HOP-18 NSCLC
SK-OV-3 ovarian = system: SK-OV-3 ovarian
HCT-116 colon = system: HCT-116 colon
SR leukemia = system: SR leukemia

## CCO/C=C1\N=C(C(Cl)c2ccccc2)OC1=O (stereo not drawn)
NCI-H23 lung
  TGI: > 100 µM
A549 NSCLC
  TGI: > 100 µM
CAKI-1 renal
  TGI: > 100 µM
A498 renal
  TGI: > 100 µM
RPMI-8226 leukemia
  TGI: > 100 µM
OVCAR-4 ovarian
  TGI: > 100 µM
DMS 273 small cell lung
  TGI: > 100 µM
IGROV1 ovarian
  TGI: > 100 µM
SW-620 colon
  TGI: > 100 µM
DMS 114 small cell lung
  TGI: > 100 µM
SNB-19 CNS
  TGI: > 100 µM
UO-31 renal
  TGI: > 100 µM
SN12C renal
  TGI: > 100 µM
KM20L2 colon
  TGI: > 100 µM
CCRF-CEM leukemia
  TGI: > 100 µM
XF 498 CNS
  TGI: > 100 µM
COLO 205 colon
  TGI: > 100 µM
UACC-257 melanoma
  TGI: > 100 µM
TK-10 renal
  TGI: > 100 µM
NCI-H226 lung
  TGI: > 100 µM
SF-295 CNS
  TGI: > 100 µM
RXF 393 renal
  TGI: > 100 µM
HCT-15 colon
  TGI: > 100 µM
ACHN renal
  TGI: > 100 µM
UACC-62 melanoma
  TGI: > 100 µM
MOLT-4 leukemia
  TGI: > 100 µM
M19-MEL melanoma
  TGI: > 100 µM
NCI-H522 lung
  TGI: > 100 µM
HT29 colon
  TGI: > 100 µM
SF-268 CNS
  TGI: > 100 µM
OVCAR-8 ovarian
  TGI: > 100 µM
M14 melanoma
  TGI: > 100 µM
SF-539 CNS
  TGI: > 100 µM
SK-MEL-28 melanoma
  TGI: > 100 µM
OVCAR-3 ovarian
  TGI: > 100 µM
OVCAR-5 ovarian
  TGI: > 100 µM
SK-MEL-5 melanoma
  TGI: > 100 µM
SK-MEL-2 melanoma
  TGI: > 100 µM
LOX IMVI melanoma
  TGI: > 100 µM
MALME-3M melanoma
  TGI: > 100 µM
SNB-78 CNS
  TGI: > 100 µM
HOP-62 NSCLC
  TGI: > 100 µM
DLD-1 colon
  TGI: > 100 µM
786-0 renal
  TGI: > 100 µM
EKVX NSCLC
  TGI: > 100 µM
NCI-H460 lung
  TGI: > 100 µM
K-562 leukemia
  TGI: > 100 µM
HL-60(TB) leukemia
  TGI: > 100 µM
LXFL 529 NSCLC
  TGI: > 100 µM
SNB-75 CNS
  TGI: > 100 µM
HOP-92 NSCLC
  TGI: > 100 µM
KM12 colon
  TGI: > 100 µM
HCC-2998 colon
  TGI: > 100 µM

## O=C(NC12CC3CC(CC(C3)C1)C2)C(=O)c1c[nH]c2ccc([N+](=O)[O-])cc12
NCI-H23 lung
  TGI: > 100 µM
A549 NSCLC
  TGI: > 41.1 µM
CAKI-1 renal
  TGI: > 100 µM
A498 renal
  TGI: 98 µM
RPMI-8226 leukemia
  TGI: > 100 µM
OVCAR-4 ovarian
  TGI: 54.4 µM
DMS 273 small cell lung
  TGI: 45 µM
IGROV1 ovarian
  TGI: > 100 µM
SW-620 colon
  TGI: > 100 µM
DMS 114 small cell lung
  TGI: > 100 µM
SNB-19 CNS
  TGI: > 30.3 µM
UO-31 renal
  TGI: > 100 µM
SN12C renal
  TGI: > 100 µM
KM20L2 colon
  TGI: > 100 µM
CCRF-CEM leukemia
  TGI: > 100 µM
XF 498 CNS
  TGI: 60.6 µM
COLO 205 colon
  TGI: > 100 µM
UACC-257 melanoma
  TGI: > 100 µM
TK-10 renal
  TGI: > 100 µM
NCI-H226 lung
  TGI: 63.6 µM
SF-295 CNS
  TGI: 37.9 µM
RXF 393 renal
  TGI: > 94.6 µM
HCT-15 colon
  TGI: > 100 µM
ACHN renal
  TGI: > 100 µM
UACC-62 melanoma
  TGI: > 77.1 µM
U251 CNS
  TGI: > 46.8 µM
MOLT-4 leukemia
  TGI: > 100 µM
HOP-18 NSCLC
  TGI: > 90.9 µM
M19-MEL melanoma
  TGI: > 100 µM
SK-OV-3 ovarian
  TGI: > 100 µM
NCI-H522 lung
  TGI: > 100 µM
HT29 colon
  TGI: > 100 µM
SF-268 CNS
  TGI: 43.4 µM
OVCAR-8 ovarian
  TGI: > 100 µM
M14 melanoma
  TGI: > 100 µM
SF-539 CNS
  TGI: > 100 µM
SK-MEL-28 melanoma
  TGI: > 100 µM
OVCAR-3 ovarian
  TGI: > 100 µM
HCT-116 colon
  TGI: > 100 µM
OVCAR-5 ovarian
  TGI: > 100 µM
SR leukemia
  TGI: > 100 µM
SK-MEL-5 melanoma
  TGI: > 100 µM
SK-MEL-2 melanoma
  TGI: > 100 µM
LOX IMVI melanoma
  TGI: > 52 µM
MALME-3M melanoma
  TGI: > 94.5 µM
HOP-62 NSCLC
  TGI: > 59.1 µM
786-0 renal
  TGI: 45.9 µM
EKVX NSCLC
  TGI: > 100 µM
NCI-H460 lung
  TGI: > 72.3 µM
K-562 leukemia
  TGI: > 100 µM
HL-60(TB) leukemia
  TGI: > 100 µM
LXFL 529 NSCLC
  TGI: > 100 µM
SNB-75 CNS
  TGI: 52.8 µM
HOP-92 NSCLC
  TGI: > 90.5 µM
KM12 colon
  TGI: > 100 µM
HCC-2998 colon
  TGI: > 100 µM

## COc1cc([C@H]2c3cc4c(cc3[C@H](NCc3ccc([N+](=O)[O-])cc3)C3COC(=O)[C@H]32)OCO4)cc(OC)c1O (stereo partly drawn)
NCI-H23 lung
  TGI: 1.91 µM
A549 NSCLC
  TGI: 2.23 µM
CAKI-1 renal
  TGI: 4.58 µM
A498 renal
  TGI: 2.67 µM
RPMI-8226 leukemia
  TGI: > 25.6 µM
OVCAR-4 ovarian
  TGI: > 100 µM
DMS 273 small cell lung
  TGI: > 100 µM
IGROV1 ovarian
  TGI: > 61.3 µM
SW-620 colon
  TGI: > 38.3 µM
DMS 114 small cell lung
  TGI: > 25.3 µM
SNB-19 CNS
  TGI: 21.4 µM
UO-31 renal
  TGI: 5.75 µM
SN12C renal
  TGI: 4.68 µM
KM20L2 colon
  TGI: 14.4 µM
CCRF-CEM leukemia
  TGI: > 100 µM
XF 498 CNS
  TGI: 20.4 µM
COLO 205 colon
  TGI: > 43.9 µM
UACC-257 melanoma
  TGI: > 81.8 µM
TK-10 renal
  TGI: 7.08 µM
NCI-H226 lung
  TGI: 1.68 µM
SF-295 CNS
  TGI: 5.14 µM
RXF 393 renal
  TGI: > 64.6 µM
HCT-15 colon
  TGI: 6.44 µM
ACHN renal
  TGI: 2.32 µM
UACC-62 melanoma
  TGI: 12.1 µM
U251 CNS
  TGI: 3.26 µM
MOLT-4 leukemia
  TGI: > 100 µM
M19-MEL melanoma
  TGI: > 100 µM
SK-OV-3 ovarian
  TGI: > 24.6 µM
HT29 colon
  TGI: 14.6 µM
SF-268 CNS
  TGI: > 25.9 µM
OVCAR-8 ovarian
  TGI: 7.62 µM
M14 melanoma
  TGI: 10.4 µM
SF-539 CNS
  TGI: 2.95 µM
SK-MEL-28 melanoma
  TGI: > 100 µM
OVCAR-3 ovarian
  TGI: 40 µM
HCT-116 colon
  TGI: > 86.1 µM
OVCAR-5 ovarian
  TGI: > 26 µM
SK-MEL-5 melanoma
  TGI: 6.61 µM
SK-MEL-2 melanoma
  TGI: 34.9 µM
LOX IMVI melanoma
  TGI: 9.81 µM
MALME-3M melanoma
  TGI: 17.3 µM
SNB-78 CNS
  TGI: > 100 µM
HOP-62 NSCLC
  TGI: 0.784 µM
DLD-1 colon
  TGI: > 43.5 µM
786-0 renal
  TGI: 2.78 µM
EKVX NSCLC
  TGI: > 23.6 µM
NCI-H460 lung
  TGI: 2.18 µM
K-562 leukemia
  TGI: > 100 µM
LXFL 529 NSCLC
  TGI: > 76 µM
SNB-75 CNS
  TGI: 6.6 µM
HOP-92 NSCLC
  TGI: > 100 µM
KM12 colon
  TGI: 11.4 µM
HCC-2998 colon
  TGI: 3.98 µM
